According to paper PMC11062894, “Protein-based bandpass filters for controlling cellular signaling with chemical inputs” (Nature Chemical Biology, 2023):
“And” between values parts separate entries of the source, which are not always exact repeats. Identical values can stand only once.

Test system: GEMS receptors with CBPA11 (BclXL–LD3 and BclXLhigh variants), STAT3-driven SEAP in HEK293T cells
Assay: GEMS SEAP reporter assay, CBPA11 (BclXLhigh, LD3-v and BclXL-v variants) with A-1155463
Format: cell-based
Set-up: key to Raw data (SEAP) / SEAP, replicate values / Raw data of Figure 5b / Raw data Figure 5e / Raw data of Independent repeat of CBPA11-v1 vs CBPA11-v1-LD3v3 / Raw data of Independent repeat of CBPA11-v3 vs CBPA11-v3-LD3v3 / Raw data of Figure 5b, CBPA11-v1-LD3v3 (SEAP reporter raw value, single replicate) / Raw data of Figure 5b, CBPA11-v1 (SEAP reporter raw value, single replicate): SEAP activity in U/L in culture supernatant
Settings: for SEAP (U/L): Figure 4d, representative data and independent repeats 1, 2 (triplicates); for Normalized data (SEAP) / Raw data (SEAP): SuppFigure 9a
From the text: To rationally design a CBP responding to a chemical input, we used BclXL as the druglow receptor, LD3 as the designed binder and a designed BclXL variant as the drughigh receptor (referred to as BclXLhigh) to construct a CBP responsive to BclXL inhibitors (Fig. 4a). To design BclXLhigh, we used a multistate design computational protocol described elsewhere[26] […] Thus, BclXLhigh-v(1–3) were chosen as the functional drughigh receptors, resulting in three A-1155463-controlled CBPs (referred to as CBPA11-v(1–3)) (Fig. 4c–e).
HEK293T cells were seeded in a 96-well plate 24 h before transfection. The transfection mix in each well consisted of 3 ng of constitutive human CMV promoter driven mammalian STAT3 expression vector (PhCMV-STAT3-pA), 30 ng of STAT3-induced reporter expression (OStat3-PhCMVmin-SEAP-pA) and 50 ng of expression vectors for each GEMS receptor chain (PSV40-IgK-(drughigh receptor)-EpoRm-IL-6RBm-pA and PSV40-IgK-(druglow receptor-GGGGSX3-LD3)-EpoRm-IL-6RBm-pA). For the specific drughigh receptor and druglow receptor used in the different cellular assays, they are indicated as wild type or with mutations. Then, plasmid DNA was mixed with 50 μl opti-MEM (Thermo Fisher) and 600 ng of polyethyleneimine (Polysciences, catalog no. 24765-1). For drug treatment experiments, drugs were added 12 h post-transfection and incubated with cells for 24 h before the SEAP reporter detection assay.
SEAP activity (U l^−1) in cell culture supernatants was quantified by kinetic measurements at 405 nm (1 minute per measurement for 30 cycles) of absorbance increase due to phosphatase-mediated hydrolysis of para-nitrophenyl phosphate (pNPP).
Binding affinities of SPR drug competition assays were calculated using three-parameter nonlinear regression in GraphPad Prism (v.8.3.0). Representative data of cell assays are presented as individual values and mean values (bars). n = 3 refers to biological replicates. All IC50 or EC50 values of cell assays reported were calculated using four-parameter nonlinear regression ± s.d. Bandpass features of cutoff concentrations and Bandwidth90% were estimated based on the curve fitted using bell-shaped curve nonlinear regression in GraphPad Prism (v.8.3.0). […]
Supplementary Figure 4: Design, screening and validation of BclXLhigh variants. a) Screening of BclXLhigh variants in the GEMS platform. […]
Dissociation constant measurement of BclXLhigh-v(1-3) and LD3. Equilibrium curves are fitted using […]
BclXLhigh-v1 (purple), BclXLhigh-v2 (blue), […]
a) Bcl2high-based bandpass filter designs were developed and to respond to different concentrations of […]
corresponding inhibitor. c) Screening of Bcl2high-based bandpass filter variants in the GEMS platform.
The designed binder LD3 was fused to the druglow-receptor (PSV40-IgK-Bcl2-LD3-EpoRm-IL-6RBm-pA) in one EpoR chain and Bcl2high variants with the insensitive Bcl2 (iBcl2) as control in the other EpoR chain (PSV40-IgK-Bcl2high-EpoRm-IL-6RBm-pA). HEK293T cells were transfected with indicated […]
the mean of six biological replicates ± s.d., overlaid with a scatter dot plot of the original data points.
(1 picture or pasted object on this page, not shown here)
Supplementary Figure 6: Binding affinities and drug resistances of Bcl2high-v(2,4,5) assessed by […]
a) Measurement of dissociation constants for Bcl2high-v(2,4,5) and LD3 interactions. Equilibrium curves […]
Bcl2high-v(2,4,5) measured by SPR. 5 μM of Bcl2 or indicated variants were mixed with 10 μM of […]
Bcl2high-v2 (red), Bcl2high-v4
Supplementary Figure 7: Screening of LD3 variants in CBPA11-v(1-3) and raw data of CBPA11-v(1,3) with LD3-v3 variant. a-c) Screening of LD3 and LD3-v(1-3) variants in complex with BclXL for more sensitive CBPA11-v1 (a), CBPA11-v2 (b), CBPA11-v3 (c) in the GEMS platform. The LD3 variants replaced the role of LD3 (PSV40-IgK-BclXL-LD3-v(1-3)-EpoRm-IL-6RBm-pA) in one EpoR chain and BclXLhigh-v(1-3) in the other EpoR chain (PSV40-IgK-BclXLhigh-V(1-3)-EpoRm-IL-6RBm-pA). HEK293T cells were transfected with […]

[1] = CBPA11-v3-LD3v3, A-1155463 10000 nM

CN(C)CC#Cc1ccc(OCCCc2sc(N3CCc4cccc(C(=O)Nc5nc6ccccc6s5)c4C3)nc2C(=O)O)c(F)c1 [A-1155463]
Normalized data of Figure 5b [1]: 13.381 and 8.285 and 13.0686 | Raw data of Figure 5b [1]: 11.3652 and 7.762 and 13.9821 | SEAP (U/L) (A-1155463 1 nM): 8.303 U/L and 10.1289 U/L and 7.12 U/L and 9.7586 U/L and 8.864 U/L and 9.857 U/L | SEAP (U/L) (A-1155463 3.16 nM): 6.744 U/L and 8.922 U/L and 8.703 U/L and 12.2331 U/L and 8.658 U/L and 8.903 U/L | Normalized data (SEAP) (BclXL-v1, A-1155463 1 nM): 9.876 | Raw data (SEAP) (BclXL-v1, A-1155463 1 nM): 9.508 | Normalized data (SEAP) (BclXL-v1, A-1155463 3.16 nM): 8.253 | Raw data (SEAP) (BclXL-v1, A-1155463 3.16 nM): 7.946 | Normalized data (SEAP) (BclXL-v1, A-1155463 100 nM): 78.5603 | Raw data (SEAP) (BclXL-v1, A-1155463 100 nM): 75.6338 | Normalized data (SEAP) (BclXL-v1, A-1155463 316 nM): 100 | Raw data (SEAP) (BclXL-v1, A-1155463 316 nM): 96.2749 | Normalized data (SEAP) (BclXL-v1, A-1155463 1000 nM): 71.1878 | Raw data (SEAP) (BclXL-v1, A-1155463 1000 nM): 68.536 | Normalized data (SEAP) (BclXL-v1, A-1155463 3160 nM): 30.3077 | Raw data (SEAP) (BclXL-v1, A-1155463 3160 nM): 29.1787 | Normalized data (SEAP) (BclXL-v1, A-1155463 10000 nM): 12.5367 | Raw data (SEAP) (BclXL-v1, A-1155463 10000 nM): 12.0697 | Normalized data (SEAP) (BclXL-v2, A-1155463 1 nM): 3.201 | Raw data (SEAP) (BclXL-v2, A-1155463 1 nM): 9.801 | Normalized data (SEAP) (BclXL-v2, A-1155463 3.16 nM): 2.258 | Raw data (SEAP) (BclXL-v2, A-1155463 3.16 nM): 6.914 | Normalized data (SEAP) (BclXL-v2, A-1155463 100 nM): 100 | Raw data (SEAP) (BclXL-v2, A-1155463 100 nM): 306.188 | Normalized data (SEAP) (BclXL-v2, A-1155463 316 nM): 84.9937 | Raw data (SEAP) (BclXL-v2, A-1155463 316 nM): 260.24 | Normalized data (SEAP) (BclXL-v2, A-1155463 1000 nM): 53.3071 | Raw data (SEAP) (BclXL-v2, A-1155463 1000 nM): 163.22 | Normalized data (SEAP) (BclXL-v2, A-1155463 3160 nM): 38.1484 | Raw data (SEAP) (BclXL-v2, A-1155463 3160 nM): 116.806 | Normalized data (SEAP) (BclXL-v2, A-1155463 10000 nM): 23.1544 | Raw data (SEAP) (BclXL-v2, A-1155463 10000 nM): 70.8961 | Normalized data (SEAP) (BclXL-v3, A-1155463 1 nM): 38.0177 | Raw data (SEAP) (BclXL-v3, A-1155463 1 nM): 3.662 | Normalized data (SEAP) (BclXL-v3, A-1155463 3.16 nM): 36.4228 | Raw data (SEAP) (BclXL-v3, A-1155463 3.16 nM): 3.509 | Normalized data (SEAP) (BclXL-v3, A-1155463 100 nM): 68.011 | Raw data (SEAP) (BclXL-v3, A-1155463 100 nM): 6.552 | Normalized data (SEAP) (BclXL-v3, A-1155463 316 nM): 43.5621 | Raw data (SEAP) (BclXL-v3, A-1155463 316 nM): 4.196 | Normalized data (SEAP) (BclXL-v3, A-1155463 1000 nM): 47.9459 | Raw data (SEAP) (BclXL-v3, A-1155463 1000 nM): 4.619 | Normalized data (SEAP) (BclXL-v3, A-1155463 3160 nM): 98.7391 | Raw data (SEAP) (BclXL-v3, A-1155463 3160 nM): 9.512 | Normalized data (SEAP) (BclXL-v3, A-1155463 10000 nM): 92.8941 | Raw data (SEAP) (BclXL-v3, A-1155463 10000 nM): 8.949 | Normalized data (SEAP) (BclXL, A-1155463 1 nM): 5.357 | Raw data (SEAP) (BclXL, A-1155463 1 nM): 23.0325
